In series [1] the test system is NK-cells activity (lymphocytes) against K-562 cells. Briefly: Inhibition of NK-cells activity (chromium release cytotoxicity of lymphocytes against K-562). The series is classed as cell-based, human. Conditions: for % specific cytotoxicity: ratio 20:1; for cytolytic effect after preincubation with the oligosaccharides: in concentrations down to 0.3 mg/ml. The protocol:
Lymphocytes isolated from peripheral blood drained from normal donors have the ability of exerting a cytotoxic, (i.e. cell killing activity against certain types of cells in culture. In the instant example there is used a human leukemia cell line called K-562 as a target cell for such cytolytic activity.
Method: K-562 cells intracellularly labelled with radioactive chromium are incubated with effector cells (lymphocytes) for 4 hours at 37° C. The cytotoxic effect is measured as the quantity of isotope released in relation to remaining isotope in the target cells. For details see Malmstrom, P., Jonsson, Å, and Sjogren, H.O. "Countercurrent distribution of lymphocytes from human peripheral blood in an aqueous two-phase system. II. Separation into subsets of lymphocytes with distinctive functions". Cell Immunol. 53:51-64, 1980. For studying inhibiting substances effector cells (6×10^6 cells/ml) are preincubated with the respective oligosaccharides diluted in cultivating medium for half an hour at 37° C. After washing with centrifugation the effector cells are transferred directly to the target cells.

The test system of series [2] is haemagglutination between sheep erythrocytes and S. saprophyticus bacteria (Mc 2 and Mc 194). Briefly: Inhibition of haemagglutination of sheep erythrocytes with Staphylococcus saprophyticus. As to conditions: for minimal effective concentration: Staphylococcus saprophyticus, Erythrocyte, read-out: Minimum inhibitory con. Type of series: cell-based. The protocol: In the tests the bacteria S. saprophyticus strains, both isolated from urine from patents having urinary tract infection, were used. The bacteria were cultivated in tryptone broth over night, pelletized by means of centrifugation and washed twice with PBS, pH 7.2. Haemagglutination was performed using erythrocytes from sheep obtained from sheep blood and washed twice with 0.85 % saline.
In the haemagglutination-indication experiments microtitre plates (Limbo Sc. Comp. Inc) were used. 25 μl of bacterial suspension were titrated in PBS by two-step titre steps, 25 μl of 1% erythrocyte suspension being then added. The haemagglutination titre was determined after incubation of the plates for 2-4 hours in room temperature.
In the inhibition experiments serial dilutions of the relevant inhibitor (50 μl/well) and 25 μl of bacterial suspension diluted to contain 2 HU haemagglutinating units of bacteria were used. The plates were incubated for 30 minutes at 37° C., 25 μl of the erythrocyte suspension being then added to each well.

Series [3] deals with haemagglutination between GRBC and Bordetella pertussis bacteria or fimbriae thereof. Briefly: Inhibition of haemagglutination of goose erythrocytes (GRBC) with Bordetella pertussis. The series is classed as cell-based. As to conditions: for minimal effective concentration: Bordetella pertussis, Erythrocyte, 4 h, read-out: Minimum inhibitory concentration. The protocol: In the tests bacteria of the type Bordetella pertussis newly sampled from an individual suffering from whooping cough were used. The bacteria were cultivated on CFA-agar at +37° C. for 18 hours. The bacterial growth was slurried in PBS, pH 7.2 to a density of 1×10^10 bacteria/ml. Fimbriae from the bacterium were obtained in the following manner:
The bacteria were cultivated on Roux flasks with CFA-agar. After incubation at +37° for 24 hours the bacteria were harvested by adding 10 ml PBS/flask and sterile glass balls. The flasks were shaken and the bacterial suspension removed. The bacteria were pelletized by centrifugation (3000×g, +4°, 30 min.). The supernatant was removed by suction. The bacteria were resuspended in 10 ml PBS and the suspension was treated in a Waring blendor 2 x 20 seconds. The suspension was centrifuged (5000×g, +4°, 30 min.) to pelletize the bacteria. The supernatant containing fimbriae was removed by suction. The bacterial pellet is resuspended, treated in a Waring blender and after centrifugation the supernatant is again recovered. The two supernatants are pooled and ammonium sulphate is added to a concentration of 30 %. After stirring the supernatants are allowed to stand at +4° C. for 18 hours, centrifugation then taking place at 5000 ×g. The supernatant was separated and the precipitation was dialyzed against PBS. The solubilized fimbriae fraction was precipitated with ammonium sulphate once more and dialyzed.
Haemagglutination is performed using erythrocytes from geese (GRBC) suspended to a concentration of 3% v/w in PBS. The agglutination tests were carried out so that 50 μl GRBC were mixed with 2-step dilution of antigen 50 μl bacterial suspension or 50 μl fimbriae suspension and 50 μl PBS in microtitre plates. The plates were sealed with Parafilm and incubated at […] for 4 hours and were then recorded. The last well wherein agglutination could be read by the eye is considered as 1 haemagglutinating unit (1 HU).
In the inhibition experiments there were added instead of PBS 50 μl of an oligosaccharide solution, the inhibiting capacity was studied. […]

Series [4] has as its system adhesion of S. saprophyticus to urinary epithelial cells. Briefly: Inhibition of adherence of S. saprophyticus to urinary epithelial cells. Type of series: cell-based, Staphylococcus saprophyticus. As to conditions: Staphylococcus saprophyticus, Epithelial cell, 0.75 h, read-out: reduction of the number of adhering bacteria. The protocol:
Cells from urinary epithelium were suspended in cell cultivation medium RPMI 1640 (Flow Ltd) to a concentration of 10^5 cells/ml.
Microorganisms of the type S. saprophyticus were suspended in RPMI 1640 to a concentration of 10^9 bacteria/ml. Oligosaccharides which were tested for their ability of preventing adhesion of S. saprophyticus to urinary epithelial cells were dissolved in RPMI 1640 to a concentration of 5 mg/ml. In the experiments 1 ml of the oligosaccharide solution was incubated with 0.1 ml bacterial suspension at 37° C. for 30 minutes. Urinary epithelial cells were incubated with the bacterial suspension incubated in advance as described above with oligosaccharide solution for 45 minutes at 37° C. As a control there was used a bacterial suspension preincubated with 1 ml RPMI 1640.
Incubated samples were filtrated through a 12μ filter and washed 3 times with PBS. The filter was pressed against microscope slides for a few seconds, the slides being then fixed in methanol for 10 minutes. The slides were dried in air and coloured with acridine orange for 2 minutes. The slides were washed, dried in air and studies in fluorescence microscope. The number of bacteria per cell was counted. In each experiment 50 cells were counted.

Series [5] relates to S. saprophyticus. Briefly: Removal of S. saprophyticus from an infected surface (disinfection). More on the design: species or system Staphylococcus saprophyticus. Conditions: 0.1 percent by weight aqueous solution, cotton pad. The protocol:
A 0.1 percent by weight aqueous solution of the compound β-D-Galp-(1-4)-D-GNAc is prepared and applied by using a cotton pad on a surface infected by S. saprophyticus.

Where [6] appears, read: 0.3 mg/ml oligosaccharide, experiment 1 (without inhibitor 22.3).
Setting [7] is: 0.3 mg/ml oligosaccharide, experiment 2 (without inhibitor 32.0).
[8] abbreviates: 1 mg/ml oligosaccharide, experiment 1 (without inhibitor 22.3).
Setting [9] is: 1 mg/ml oligosaccharide, experiment 2 (without inhibitor 32.0).
[10] abbreviates: 3 mg/ml oligosaccharide, experiment 1 (without inhibitor 22.3).
Setting [11] is: 3 mg/ml oligosaccharide, experiment 2 (without inhibitor 32.0).

`CC(=O)N[C@H]1[C@H](O[C@@H]2[C@@H](OC[C@H]3O[C@@H](O[C@H]4[C@H](O)[C@@H](NC(C)=O)C(O)O[C@@H]4CO)[C@@H](O)[C@@H](O)[C@@H]3O)O[C@H](CO)[C@@H](O)[C@@H]2O)O[C@H](CO)[C@@H](O[C@@H]2O[C@H](CO)[C@H](O)[C@H](O)[C@H]2O)[C@@H]1O` (stereo partly drawn) [GM1 -penta, β-Galp-(1-4)-β-GNAcp-(1-2)-α-Manp-(1-6)-β-Manp-(1-4)-GNAc]: the “% specific cytotoxicity” value is 16.8% in series [1] (setting [6]); 13.9% in series [1] (setting [7]); 6.5% in series [1] (setting [8]); 2.7% in series [1] (setting [9]); -1.4% in series [1] (setting [10]); 0.0% in series [1] (setting [11]). Also, the “cytolytic effect after preincubation with the oligosaccharides” value in series [1] is recorded as “inhibited”. Further, the minimal effective concentration in series [2] was 250 µg/mL; in series [3], 675 µg/mL.

In the case of Asialofetuin, the “% specific cytotoxicity” value in series [1] (setting [6]) was determined as 10%; in series [1] (setting [7]), 15%; in series [1] (setting [8]), 7.0%; in series [1] (setting [9]) it was 5.0%; in series [1] (setting [10]) it was 1.5%; in series [1] (setting [11]), 1.0%. Also, in series [1], the “cytolytic effect after preincubation with the oligosaccharides” value is “inhibited”. Besides, the Minimum inhibitory con. in series [2] (Inhibition of haemagglutination, S. saprophyticus Mc 2 and Mc 194, 2 HU bacteria) was found to be 125 µg/mL. The Minimum inhibitory concentration in series [3] (Inhibition of haemagglutination, 3% GRBC, 2-4 HU bacteria or fimbriae, +44° C., 4 hours) was 150 µg/mL.

For the compound `CC(=O)N[C@H]1C(O)O[C@H](CO)[C@@H](O[C@@H]2O[C@H](CO)[C@H](O)[C@H](O)[C@H]2O)[C@@H]1O` (stereo partly drawn) [β-Galp-(1-4)-GNAc], the minimal effective concentration in series [2] was 300 µg/mL. Further, the inhibition at 5000 µg/mL in series [4] was around 85%. Moreover, the “removal of the bacterium from the surface” value in series [5] is “effective removal of the bacterium from the surface”.

Take `CC(=O)N[C@H]1[C@H](O[C@@H]2[C@@H](OC[C@H]3O[C@@H](O[C@H]4[C@H](O)[C@@H](NC(C)=O)C(O)O[C@@H]4CO)[C@@H](O)[C@@H](O[C@H]4O[C@H](CO)[C@@H](O)[C@H](O)[C@@H]4O[C@@H]4O[C@H](CO)[C@@H](O[C@@H]5O[C@H](CO)[C@H](O)[C@H](O)[C@H]5O)[C@H](O)[C@H]4NC(C)=O)[C@@H]3O)O[C@H](CO)[C@@H](O)[C@@H]2O)O[C@H](CO)[C@@H](O[C@@H]2O[C@H](CO)[C@H](O)[C@H](O)[C@H]2O)[C@@H]1O` (stereo partly shown) [drawing 7]: the minimal effective concentration in series [3] was 175 µg/mL.

Source of the values: patent US4851338A, “Method for diagnosing the presence of bacteria” (Biocarb AB, priority 1982, dated 1989).
